Results taken from ChEMBL document CHEMBL3091402, “Identification of clinical candidates from the benzazepine class of histamine H3 receptor antagonists” (Bioorg Med Chem Lett, 2013).

Tests used:
Histamine H3 receptor [1] = biological target: Histamine H3 receptor (Homo sapiens, UniProt Q9Y5N1); assay: Antagonist activity at human histamine H3 receptor expressed in CHOK1 cells assessed as inhibition of GTPgammaS binding; assay type: functional, cell-based, CHO-K1
Rattus norvegicus [2] = assay: Ex vivo binding affinity to histamine H3 receptor in rat cerebral cortex using [3H]-R-alpha-ethylhistamine at 3 mg/kg, po after 3 hrs by HPLC analysis; assay type: functional
Histamine H3 receptor [3] = biological target: T1, Histamine H3 receptor (Rattus norvegicus, UniProt Q9QYN8); assay: Displacement of [3H]-R-alpha-ethylhistamine from histamine H3 receptor in rat cerebral cortical tissue membranes after 45 mins by liquid scintillation spectrometry
Rattus norvegicus [4] = assay: Ex vivo binding affinity to histamine H3 receptor in po dosed rat cerebral cortex using [3H]-R-alpha-ethylhistamine after 2 hrs by HPLC analysis; assay type: functional
Rattus norvegicus [5] = assay: Reversal of RAMH-induced dipsogenia in Lister Hooded rat at 3 mg/kg, po treated 2 hrs before RAMH challenge measured after 1 hr; assay type: functional
[6] = Ratio of drug level in brain to blood in rat at 3 mg/kg, po after 1 hr; assay type: ADME, organism-based; parameters: dose 3 mg/kg, route oral
Liver microsome [7] = assay: Intrinsic clearance in rat liver microsomes; assay type: ADME
Blood = assay: Drug level in rat blood at 3 mg/kg, po; assay type: ADME, organism-based; parameters: dose 3 mg/kg, route oral; details: in vivo, read-out: Drug uptake
[8] = Time dependent inhibition of CYP450 (unknown origin); assay type: ADME, Homo sapiens
Histamine H2 receptor = Histamine H2 receptor (Homo sapiens, UniProt P25021); assay: Binding affinity to human histamine H2 receptor
hERG (KCNH2) = hERG (KCNH2) (Homo sapiens, UniProt Q12809); assay: Inhibition of human ERG at 10 uM by patch clamp experiment
Liver microsome [9] = assay: Intrinsic clearance in human liver microsomes; assay type: ADME
Rattus norvegicus [10] = assay: Reversal of RAMH-induced dipsogenia in po dosed Lister Hooded rat treated 2 hrs before RAMH challenge measured after 1 hr; assay type: functional
Histamine H4 receptor = Histamine H4 receptor (Homo sapiens, UniProt Q9H3N8); assay: Binding affinity to human histamine H4 receptor
Histamine H3 receptor [11] = biological target: T1, Histamine H3 receptor; assay: Displacement of [3H]-R-alpha-ethylhistamine from rat histamine H3 receptor expressed in HEK293 cells after 45 mins by liquid scintillation spectrometry; assay type: cell-based
Histamine H1 receptor = Histamine H1 receptor (Homo sapiens, UniProt P35367); assay: Binding affinity to human histamine H1 receptor
[12] = Aqueous solubility of the compound; assay type: physicochemical
Rattus norvegicus [13] = assay: Ex vivo binding affinity to histamine H3 receptor in rat cerebral cortex using [3H]-R-alpha-ethylhistamine at 0.3 mg/kg, po after 3 hrs by HPLC analysis; assay type: functional
[14] = Ratio of drug level in brain to blood in rat at 3 mg/kg, po; assay type: ADME, organism-based; parameters: dose 3 mg/kg, route oral

Chain of Histamine H3 receptor (Homo sapiens, UniProt Q9Y5N1) (Q9Y5N1 whole entry): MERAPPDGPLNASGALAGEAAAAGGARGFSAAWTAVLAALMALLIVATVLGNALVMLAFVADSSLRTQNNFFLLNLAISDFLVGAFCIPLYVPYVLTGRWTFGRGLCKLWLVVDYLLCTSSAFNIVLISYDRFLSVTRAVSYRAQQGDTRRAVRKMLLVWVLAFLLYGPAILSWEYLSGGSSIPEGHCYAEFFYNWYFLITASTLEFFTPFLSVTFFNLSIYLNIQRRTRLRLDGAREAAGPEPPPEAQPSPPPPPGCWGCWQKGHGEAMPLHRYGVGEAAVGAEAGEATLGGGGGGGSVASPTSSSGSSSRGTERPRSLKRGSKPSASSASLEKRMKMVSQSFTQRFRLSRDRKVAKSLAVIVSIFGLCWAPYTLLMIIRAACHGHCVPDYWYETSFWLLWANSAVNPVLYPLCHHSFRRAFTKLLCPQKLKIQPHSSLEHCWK
T1 sequence (Q9QYN8 whole entry): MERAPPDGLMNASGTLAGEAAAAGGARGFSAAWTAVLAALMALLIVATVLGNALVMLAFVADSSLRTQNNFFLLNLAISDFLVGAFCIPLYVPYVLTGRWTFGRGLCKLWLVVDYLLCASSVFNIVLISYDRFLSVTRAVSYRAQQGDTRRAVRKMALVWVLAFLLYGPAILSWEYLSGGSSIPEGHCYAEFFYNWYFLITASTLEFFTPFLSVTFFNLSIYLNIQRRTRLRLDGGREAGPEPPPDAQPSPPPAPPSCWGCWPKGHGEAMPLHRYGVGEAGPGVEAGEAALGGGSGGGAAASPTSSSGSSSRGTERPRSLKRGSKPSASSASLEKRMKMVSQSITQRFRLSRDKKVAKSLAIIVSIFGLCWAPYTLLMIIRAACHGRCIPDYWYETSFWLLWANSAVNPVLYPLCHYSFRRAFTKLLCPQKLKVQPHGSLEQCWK
Chain of Histamine H1 receptor (P35367 whole entry): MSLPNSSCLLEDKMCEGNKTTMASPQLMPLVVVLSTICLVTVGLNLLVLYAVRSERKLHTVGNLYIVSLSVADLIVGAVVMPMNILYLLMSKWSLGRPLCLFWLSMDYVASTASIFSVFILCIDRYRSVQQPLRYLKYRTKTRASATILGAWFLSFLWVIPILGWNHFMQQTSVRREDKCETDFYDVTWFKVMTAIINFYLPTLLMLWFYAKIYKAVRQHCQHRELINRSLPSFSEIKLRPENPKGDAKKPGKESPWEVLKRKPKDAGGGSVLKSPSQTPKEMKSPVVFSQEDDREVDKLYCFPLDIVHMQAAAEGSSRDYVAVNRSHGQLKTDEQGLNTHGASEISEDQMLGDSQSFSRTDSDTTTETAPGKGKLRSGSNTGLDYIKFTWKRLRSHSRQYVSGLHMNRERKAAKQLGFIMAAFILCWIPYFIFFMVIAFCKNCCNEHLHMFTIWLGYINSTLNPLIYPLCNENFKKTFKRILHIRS
Chain of Histamine H2 receptor (P25021 whole entry): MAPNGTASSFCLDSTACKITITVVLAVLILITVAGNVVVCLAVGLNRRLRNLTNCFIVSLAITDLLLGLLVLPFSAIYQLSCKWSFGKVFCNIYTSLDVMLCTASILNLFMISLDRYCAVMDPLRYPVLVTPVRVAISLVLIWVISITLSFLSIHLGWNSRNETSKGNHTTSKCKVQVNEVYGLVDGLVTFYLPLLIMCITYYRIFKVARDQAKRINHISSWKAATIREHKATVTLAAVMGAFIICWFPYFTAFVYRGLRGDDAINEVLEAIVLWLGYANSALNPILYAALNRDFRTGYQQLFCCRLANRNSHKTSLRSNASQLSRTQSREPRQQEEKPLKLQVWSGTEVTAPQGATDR
Chain of hERG (KCNH2) (Q12809 whole entry): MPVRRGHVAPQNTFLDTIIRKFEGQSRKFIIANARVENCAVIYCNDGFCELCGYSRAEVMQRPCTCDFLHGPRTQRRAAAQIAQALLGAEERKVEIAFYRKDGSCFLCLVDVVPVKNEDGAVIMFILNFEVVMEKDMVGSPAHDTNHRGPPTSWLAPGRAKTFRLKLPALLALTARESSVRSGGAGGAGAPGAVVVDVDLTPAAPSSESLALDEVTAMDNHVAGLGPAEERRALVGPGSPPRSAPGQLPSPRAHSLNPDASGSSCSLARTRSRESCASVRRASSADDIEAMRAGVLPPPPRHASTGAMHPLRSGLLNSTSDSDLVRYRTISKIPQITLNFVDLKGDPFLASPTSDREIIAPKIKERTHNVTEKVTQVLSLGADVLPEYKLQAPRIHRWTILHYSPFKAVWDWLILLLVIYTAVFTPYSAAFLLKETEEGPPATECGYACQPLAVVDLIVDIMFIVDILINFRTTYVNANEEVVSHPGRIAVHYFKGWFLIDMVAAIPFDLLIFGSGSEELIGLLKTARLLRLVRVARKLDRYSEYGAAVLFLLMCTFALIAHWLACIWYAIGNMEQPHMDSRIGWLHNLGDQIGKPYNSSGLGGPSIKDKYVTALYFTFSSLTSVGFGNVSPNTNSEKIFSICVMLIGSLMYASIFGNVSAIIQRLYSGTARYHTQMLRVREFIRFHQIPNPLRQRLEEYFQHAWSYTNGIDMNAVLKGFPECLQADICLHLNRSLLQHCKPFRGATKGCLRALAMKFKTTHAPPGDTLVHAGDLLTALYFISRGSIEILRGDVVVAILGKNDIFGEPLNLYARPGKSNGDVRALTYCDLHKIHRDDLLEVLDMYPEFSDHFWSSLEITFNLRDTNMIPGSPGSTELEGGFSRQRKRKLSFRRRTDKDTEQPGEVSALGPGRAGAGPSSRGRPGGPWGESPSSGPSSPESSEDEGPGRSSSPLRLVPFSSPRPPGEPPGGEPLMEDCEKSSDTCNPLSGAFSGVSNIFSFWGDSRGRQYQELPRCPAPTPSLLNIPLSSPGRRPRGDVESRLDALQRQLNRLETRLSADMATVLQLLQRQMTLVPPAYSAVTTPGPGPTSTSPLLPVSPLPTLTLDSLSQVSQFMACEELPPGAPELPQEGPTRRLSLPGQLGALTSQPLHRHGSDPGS
Chain of Histamine H4 receptor (Q9H3N8 whole entry): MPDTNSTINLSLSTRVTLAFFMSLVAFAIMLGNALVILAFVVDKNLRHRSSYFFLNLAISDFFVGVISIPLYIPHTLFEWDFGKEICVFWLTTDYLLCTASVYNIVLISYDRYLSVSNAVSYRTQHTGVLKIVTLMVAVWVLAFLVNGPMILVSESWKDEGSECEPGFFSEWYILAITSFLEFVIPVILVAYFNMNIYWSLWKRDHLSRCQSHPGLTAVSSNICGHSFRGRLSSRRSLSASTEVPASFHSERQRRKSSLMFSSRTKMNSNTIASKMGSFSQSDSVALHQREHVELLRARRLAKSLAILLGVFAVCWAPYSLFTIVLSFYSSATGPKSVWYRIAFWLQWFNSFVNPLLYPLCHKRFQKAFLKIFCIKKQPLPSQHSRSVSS

| SMILES | Ki (Histamine H3 receptor [1]) | Activity (Rattus norvegicus [2]) | Ki (Histamine H3 receptor [3]) | ED50 (Rattus norvegicus [4]) | concentration (Blood) | other results |
| --- | --- | --- | --- | --- | --- | --- |
| O=C1C[C@@H](O)CN1c1ccc(Oc2ccc3c(c2)CCN(C2CCC2)CC3)nc1 | 0.2 nM | 56% | 1.58 nM | – | – | – |
| O=C(N1CCOCC1)N1CCC(Oc2ccc3c(c2)CCN(C2CCC2)CC3)CC1 | – | 43% | – | 2 mg/kg | – | Activity (Rattus norvegicus [5]): 100% |
| CCN(C)C(=O)c1ccc(Oc2ccc3c(c2)CCN(C2CCC2)CC3)nc1 | 0.631 nM | 56% | 10 nM | – | 0.27 µM | Activity (Rattus norvegicus [5]): 94%; Kp at 1 h [6]: 1; CLH (Liver microsome [7]): < 3 mL/min/g |
| CNC(=O)c1cnc(Oc2ccc3c(c2)CCN(C2CCC2)CC3)cn1 | – | 82% | 0.832 nM | 0.04 mg/kg | 1.12 µM | IC50 [8]: > 10000 nM; Ki (Histamine H2 receptor): > 3160 nM; inhibition at 10 µM (hERG (KCNH2)): < 10%; CLH (Liver microsome [9]): 1.2 mL/min/g; ED50 (Rattus norvegicus [10]): 0.02 mg/kg; Ki (Histamine H4 receptor): > 3160 nM; CLH (Liver microsome [7]): 1.4 mL/min/g; Ki (Histamine H3 receptor [11]): 1.12 nM; Ki (Histamine H1 receptor): 1580 nM |
| Cc1nc(Oc2ccc3c(c2)CCN(C2CCC2)CC3)ccc1C#N | 0.2 nM | 18% | 3.98 nM | – | – | – |
| CNC(=O)c1ccc(Oc2ccc3c(c2)CCN(C2CCC2)CC3)nc1 [GSK189254] | 0.2 nM | 100% | 2.63 nM | 0.17 mg/kg | 0.88 µM | IC50 [8]: > 10000 nM; solubility [12]: > 10 mg/mL; Activity (Rattus norvegicus [5]): 100%; Ki (Histamine H2 receptor): > 3160 nM; Kp at 1 h [6]: 1.3; inhibition at 10 µM (hERG (KCNH2)): 36%; CLH (Liver microsome [9]): 0.5 mL/min/g; ED50 (Rattus norvegicus [10]): 0.05 mg/kg; Ki (Histamine H4 receptor): > 3160 nM; CLH (Liver microsome [7]): 0.5 mL/min/g; Ki (Histamine H3 receptor [11]): 0.676 nM; Ki (Histamine H1 receptor): > 2510 nM |
| O=C1CCN1c1ccc(Oc2ccc3c(c2)CCN(C2CCC2)CC3)nc1 | 0.0794 nM | – | 0.2 nM | – | – | Activity (Rattus norvegicus [13]): 21% |
| CC(=O)Nc1ccc(Oc2ccc3c(c2)CCN(C2CCC2)CC3)nc1 | 0.2 nM | 89% | 1 nM | 0.32 mg/kg | 1.2 µM | Kp [14]: 0.8 |
| O=C1CCCN1c1ccc(Oc2ccc3c(c2)CCN(C2CCCC2)CC3)nc1 | 0.126 nM | 88% | 0.794 nM | 0.1 mg/kg | 0.55 µM | Kp [14]: 1; ED50 (Rattus norvegicus [10]): 0.04 mg/kg |
| Cc1nnc(-c2ccc(Oc3ccc4c(c3)CCN(C3CCC3)CC4)nc2)o1 | 0.158 nM | 84% | 0.501 nM | 0.42 mg/kg | 2.7 µM | Kp [14]: 2.8; ED50 (Rattus norvegicus [10]): 0.05 mg/kg |
| Cc1noc(C)c1-c1ccc(Oc2ccc3c(c2)CCN(C2CCC2)CC3)nc1 | 0.501 nM | 48% | 2.51 nM | – | – | – |
| O=C1CCCCN1c1ccc(Oc2ccc3c(c2)CCN(C2CCC2)CC3)nc1 | 0.316 nM | 10% | 2.51 nM | – | – | – |
| O=C(c1ccc(Oc2ccc3c(c2)CCN(C2CCC2)CC3)nc1)N1CCCC1 | 0.251 nM | 65% | 0.631 nM | – | 0.01 µM | Activity (Rattus norvegicus [5]): 78%; CLH (Liver microsome [7]): < 3 mL/min/g |
| CC1CCC(=O)N1c1ccc(Oc2ccc3c(c2)CCN(C2CCC2)CC3)nc1 (stereo not drawn) | 0.316 nM | 52% | 2.51 nM | – | – | – |
| c1cncc(Oc2ccc3c(c2)CCN(C2CCC2)CC3)c1 | 2.51 nM | – | – | – | – | – |
| CC(=O)c1ccc(Oc2ccc3c(c2)CCN(C2CCC2)CC3)cn1 | 0.1 nM | – | 0.631 nM | – | – | Activity (Rattus norvegicus [13]): 66% |
